Laboratory results from article PMC8551311, “Energy transfer between the nicotinamide nucleotide transhydrogenase and ATP synthase of Escherichia coli” (Scientific Reports, 2021).

How the values were obtained:
[1] = target: T1, E. coli F1F0 ATP synthase (Escherichia coli, UniProt P0ABB0+P0ABB4); experiment: ATP synthesis in proteoliposomes, luciferin/luciferase luminescence; format: biochemical; design: gene atpA; with ATP synthase gamma chain; ATP synthase subunit delta; ATP synthase epsilon chain; ATP synthase subunit a; ATP synthase subunit b; ATP synthase subunit c; conditions: 250 μM ADP, 40 mM KH2PO4, 5 mM MgCl2, 1.5 mM NAD+, 750 μM NADPH; 50 mM HEPES pH 7.5, 100 mM KCl; co-reconstituted with transhydrogenase
[2] = target: T1, E. coli F1F0 ATP synthase; design: gene atpA; conditions: 250 μM ATP, 2-4 mM MgCl2; 50 mM HEPES pH 7.5, 100 mM KCl; co-reconstituted with transhydrogenase

SMILES: Nc1ncnc2c1ncn2[C@@H]1O[C@H](COP(=O)(O)OP(=O)(O)O)[C@@H](O)[C@H]1O [ADP]
- ATP synthesis in proteoliposomes, luciferin/luciferase luminescence [1]: upon addition of NADPH, continuous ATP synthesis is observed

SMILES: Nc1ncnc2c1ncn2[C@@H]1O[C@H](COP(=O)(O)OP(=O)(O)OP(=O)(O)O)[C@@H](O)[C@H]1O [ATP]
- ATP-driven proton pumping in proteoliposomes (ACMA quench); APADH absorbance 375 [2]: addition of ATP energized inward proton pumping by ATP synthase
